Active and inactive are the calls of the source.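 How the source made its calls: active means AC50, the dose giving half-maximal effect, exceeds a fixed cutoff for a compound that rescues yeast growth under heat; inactive means the rest, inconclusive results apart.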
Each compound was assayed on S. cerevisiae Burl-1 ts mutant growth, BacTiter-Glo, 38.5C 24 h (assay: restored growth of temperature-sensitive Burl-1 yeast – whole organism, S. cerevisiae, Burl-1 ts mutant, luminescence, counter-screen for SUMOylation pathway inhibitor project, dose response (AID 463199)).
With `O=C(OCC(=O)N1CCN(c2ccccc2)CC1)c1nc(Cl)ccc1Cl` the AC50 was > 42 µM (inactive). In the case of `CCOc1cc(C(N)=O)cc(Cl)c1OCc1ccccc1`, the AC50 is reported as > 42 µM (inactive). With `Cc1cnc(NC(=O)CN2CCN(c3ccccc3F)CC2)s1` the AC50 was > 42 µM (inactive). `Cc1ccc(C)c(C(C)NC(=O)c2ccncc2)c1` (stereo unspecified) was tested, and the AC50 was > 42 µM (inactive). With `COc1ccc(C(=O)OCC(=O)c2ccccc2)cc1S(=O)(=O)N1CCOCC1` the AC50 was > 42 µM (inactive). For `CC(C)CC(=O)Nc1ccc(C(=O)CN2C(=O)NC3(CCOc4ccccc43)C2=O)cc1` (stereo unspecified), the AC50 was > 42 µM (inactive). `COc1cccc(CN2CCN(C(=O)c3cccc4ccccc34)CC2)c1OC` was tested, and the AC50 was > 42 µM (inactive). In the case of `COc1cc2c(cc1OC)CN(S(=O)(=O)c1cccc(F)c1)CC2`, the AC50 is reported as > 42 µM (inactive). In the case of `CCCNC(=O)Cn1sc2nc(C)cc(C)c2c1=O`, the AC50 is reported as > 42 µM (inactive). `CCOC(=O)C1(c2ccccc2)CCN(CCC(=O)Nc2ccccc2OC)CC1` was tested, and the AC50 was > 42 µM (inactive). `CC(=O)c1cccc(NC(=O)CNC(=O)c2sc3ccccc3c2Cl)c1` was tested, and the AC50 was > 42 µM (inactive). For `COc1ccccc1CNC(=O)C1CCC(CNS(=O)(=O)c2ccc(C)cc2)CC1` (stereo unspecified), the AC50 was > 42 µM (inactive). With `CCOc1ccc(CCN2CN(C3CCCCC3)CNC2=S)cc1OCC` the AC50 was > 42 µM (inactive). With `Cn1c(=O)[nH]c(=O)c2c1nc(Sc1ccccc1)n2CCc1ccccc1` the AC50 was > 42 µM (inactive). `C=CCSc1nnc2c(n1)[nH]c1c(C)cccc12` was tested, and the AC50 was > 42 µM (inactive). In the case of `Cc1ccc(/C=C/C(=O)O)cc1S(=O)(=O)N(CCO)CCO`, the AC50 is reported as > 42 µM (inactive). For `CCOc1ccc(C(=O)Nc2ccc(C(F)(F)F)n(C)c2=O)cc1`, the AC50 was > 42 µM (inactive). `Cc1ccc(C(=O)N/C(=C\c2cccs2)C(=O)NCc2ccncc2)cc1` was tested, and the AC50 was > 42 µM (inactive). With `COc1ccc(/C=N\Nc2ccc([N+](=O)[O-])cc2)c(C(=O)O)c1OC` the AC50 was > 42 µM (inactive). For `COc1ccc2[nH]c(C(=O)N/N=C/c3ccccc3OC)cc2c1`, the AC50 was > 42 µM (inactive). With `COc1ccc(Nc2cc(NCCCO)c([N+](=O)[O-])c3nonc23)cc1` the AC50 was > 42 µM (inactive). In the case of `CCCn1c(=O)c2ccccc2n2c(SCC(=O)N3CCc4ccccc4C3)nnc12`, the AC50 is reported as > 42 µM (inactive). `COc1ccccc1N1CCN(CCN2C(=O)C3CCCCN3C2=O)CC1` (stereo unspecified) was tested, and the AC50 was > 42 µM (inactive). For `CN(C)C1(c2nnnn2-c2ccc(Cl)cc2)CCCCC1`, the AC50 was > 42 µM (inactive). For `S=C(Nc1ccccc1Cl)N1CCOCC1`, the AC50 was > 42 µM (inactive). With `CN=C(Nc1cccnc1)c1ccccc1` the AC50 was > 42 µM (inactive). With `CCC(=O)N(Cc1ccc2c(c1)OCO2)Cc1cc2cc(OC)ccc2[nH]c1=O` the AC50 was > 42 µM (inactive). In the case of `CC1CCN(CCNC(=O)C2CCCN(S(=O)(=O)c3cccc4nsnc34)C2)CC1` (stereo unspecified), the AC50 is reported as > 42 µM (inactive). With `CN(C)S(=O)(=O)c1cccc(NC(=O)COc2nc3ccccc3nc2N2CCOCC2)c1` the AC50 was > 42 µM (inactive). For `CC(=O)c1ccc(NC(=O)CSc2nnc(-c3ccco3)o2)cc1`, the AC50 was > 42 µM (inactive). `CC(C(=O)N1CCN(C(=O)c2ccco2)CC1)n1sc2ccccc2c1=O` (stereo unspecified) was tested, and the AC50 was > 42 µM (inactive). In the case of `CCn1nnc(-c2ccccc2NC(=O)c2cnccn2)n1`, the AC50 is reported as > 42 µM (inactive). For `O=C(NC1CCc2ccccc21)c1cc(COc2ccc(F)cc2F)on1` (stereo unspecified), the AC50 was > 42 µM (inactive). With `CCOC(=O)Cn1c(=O)n(Cc2ccco2)c(=O)c2ccc(C(=O)NCCc3ccccc3)cc21` the AC50 was > 42 µM (inactive). With `CCS(=O)(=O)N1CCCC(C(=O)NCc2cccnc2)C1` (stereo unspecified) the AC50 was > 42 µM (inactive). With `CCOC(=O)C(C)(C)Sc1nc2c(cnn2-c2ccc(C)cc2)c(=O)[nH]1` the AC50 was > 42 µM (inactive). With `O=C(O)c1cc(Oc2ccc(C(F)(F)F)cc2Cl)ccc1[N+](=O)[O-]` the AC50 was > 42 µM (inactive). In the case of `C[C@H](NC(=O)OC(C)(C)C)C(=O)NCC1CCC(C(=O)N[C@@H](Cc2ccccc2)C(=O)O)CC1` (stereo partly specified), the AC50 is reported as > 42 µM (inactive). `Cc1[nH]oc(=O)c1N=Nc1c(Cl)cccc1Cl` was tested, and the AC50 was > 42 µM (inactive). For `O=C(NCc1ccco1)C1CC(=O)N(c2ccc(Cl)cc2)C1` (stereo unspecified), the AC50 was > 42 µM (inactive). `Cc1nnc(N=c2ssnc2Cl)o1` was tested, and the AC50 was > 42 µM (inactive). With `O=C(CSc1ncccn1)c1ccccc1Br` the AC50 was > 42 µM (inactive). In the case of `CN(CCOc1ccc(-c2ccn(S(=O)(=O)c3cccc4ccccc34)n2)cc1)c1ccccn1`, the AC50 is reported as > 42 µM (inactive). For `COC(=O)c1ccncc1C(=O)Nc1ccc(Oc2ncc(C(F)(F)F)cc2Cl)cc1`, the AC50 was > 42 µM (inactive). With `N#CC1=C(N)Oc2n[nH]c(CSc3ccccc3)c2C12C(=O)Nc1ccccc12` (stereo unspecified) the AC50 was > 42 µM (inactive). For `CCCOC(=O)c1c(-c2ccc(OC)cc2)oc2ccc(-c3ccc(OC)nc3)cc12`, the AC50 was > 42 µM (inactive). In the case of `CN(CCOc1ccc(Cl)cc1)CC(=O)Nc1ccc(OC(F)F)cc1`, the AC50 is reported as > 42 µM (inactive). For `COc1ccc(CNS(=O)(=O)c2ccc3c(c2)CCN3C(=O)C2CCC2)cc1`, the AC50 was > 42 µM (inactive). For `Oc1c(Br)cc(Br)cc1/C=N/N1CCN(Cc2ccccc2)CC1`, the AC50 was > 42 µM (inactive). With `COC(=O)C1(Cc2cc(-c3ccccc3)no2)CCN(C(=O)OC(C)(C)C)CC1` the AC50 was > 42 µM (inactive). For `COc1ccc(C(=O)CC(=O)C(=O)Nc2ccc(C)c(Cl)c2)cc1`, the AC50 was > 42 µM (inactive). With `CCOc1ccc(S(=O)(=O)N2CCN(CC(O)COc3cccc([N+](=O)[O-])c3)CC2)cc1` (stereo unspecified) the AC50 was > 42 µM (inactive). `CC(C)CCOCc1nc2sc3c(c2c(=O)[nH]1)CCC(C)C3` (stereo unspecified) was tested, and the AC50 was > 42 µM (inactive). With `COc1ccc(N=Cc2c(O)n(C)c(=O)[nH]c2=O)cc1` the AC50 was > 42 µM (inactive). For `O=C(N/N=C/c1ccc(Cl)s1)c1ccccc1[N+](=O)[O-]`, the AC50 was > 42 µM (inactive). `O=C(CSCc1ccc(Cl)cc1)N1CCCCC1` was tested, and the AC50 was > 42 µM (inactive). In the case of `Cc1cccc(N2CN=c3s/c(=C\c4ccccn4)c(=O)n3C2)c1`, the AC50 is reported as > 42 µM (inactive). For `COc1ccc(-c2nc(C#N)c(NC(C)c3ccccc3)o2)cc1OC` (stereo unspecified), the AC50 was > 42 µM (inactive). In the case of `Cn1cnnc1-c1cccc(NS(=O)(=O)c2ccc(N3CCCC3=O)cc2)c1`, the AC50 is reported as > 42 µM (inactive). With `O=C1OCc2cc(NS(=O)(=O)c3cccs3)ccc21` the AC50 was > 42 µM (inactive). In the case of `Cc1ccc(N/C=C(\C#N)c2ccc(OCCCF)cc2)cc1`, the AC50 is reported as > 42 µM (inactive). Work on `O=S1(=O)C=C(Sc2nnc(-c3ccccc3)o2)c2ccccc21` yielded an AC50 of 8.23 µM. With `Cc1ccc(O)c(C)c1` the AC50 was > 42 µM (inactive). For `CC(=O)c1ccc(Oc2cc(C)nc(N3CCOCC3)n2)cc1`, the AC50 was > 42 µM (inactive). With `Cc1cc2nc(CCl)cc(=O)n2[nH]1` the AC50 was > 42 µM (inactive). In the case of `Cc1c(O)ccc(C(=O)CN2C(=O)c3ccccc3C2=O)c1O`, the AC50 is reported as > 42 µM (inactive). For `C[N+](C)(C)CC(=O)Nc1ccc(Cl)cc1C(=O)c1ccccc1`, the AC50 was > 42 µM (inactive). With `CN(C)S(=O)(=O)N1CCc2ccccc2C1` the AC50 was > 42 µM (inactive). With `CCOC(=O)C1=C(N)c2ccccc2CC1C1CCCC1` (stereo unspecified) the AC50 was > 42 µM (inactive). For `CNS(=O)(=O)c1cccc(C(=O)OCC(=O)Nc2ccc(OC)cc2[N+](=O)[O-])c1`, the AC50 was > 42 µM (inactive). `CC(C)c1cc(N2CCOCC2)n2ncc(-c3ccccc3)c2n1` was tested, and the AC50 was > 42 µM (inactive). With `Cc1cccc2nc3ccccc3cc12` the AC50 was > 42 µM (inactive). In the case of `O=C(c1cc2ccccc2o1)N1CCN(C/C=C/c2ccccc2)CC1`, the AC50 is reported as > 42 µM (inactive). `O=C(COC(=O)CSc1ccc([N+](=O)[O-])cc1)NC1CCCCCCC1` was tested, and the AC50 was > 42 µM (inactive). With `CC(C)(C)c1cc(NCCCn2ccnc2)n2ncc(-c3ccc(Cl)cc3)c2n1` the AC50 was > 42 µM (inactive). `CN(C)C(=O)c1c2c(nc3ccccc13)CCCC2` was tested, and the AC50 was > 42 µM (inactive). In the case of `Cc1ccc(C(C(=O)Nc2ccc3c(c2)OCO3)N(C)C(=O)Cc2c[nH]c3ccccc23)cc1` (stereo unspecified), the AC50 is reported as > 42 µM (inactive). With `N#C/C(=C/c1ccc(N2CCCCC2)o1)C(=O)Nc1ccc(Cl)cc1` the AC50 was > 42 µM (inactive). With `CCN=C1S/C(=C/c2ccc(-c3ccc(F)cc3)o2)C(=O)N1CC` the AC50 was > 42 µM (inactive). With `O=C(COc1ccccc1)Nc1ccc(OC(F)(F)C(F)F)c(NC(=O)COc2ccccc2)c1` the AC50 was > 42 µM (inactive). With `O=C(NCCCn1ccnc1)Nc1cccc2ccccc12` the AC50 was > 42 µM (inactive). `CCN(CC)c1ncnc2ccc(Br)cc12` was tested, and the AC50 was > 42 µM (inactive). For `CC(C)C(NC(=O)c1ccccc1)C(=O)NCC(c1ccccc1)N(C)C` (stereo unspecified), the AC50 was > 42 µM (inactive). In the case of `O=C(O)CC(NC(=O)c1ccc2c(c1)OCO2)c1cccc([N+](=O)[O-])c1` (stereo unspecified), the AC50 is reported as > 42 µM (inactive). With `C=CCC(NCCCO)c1cccc(OC)c1OC` (stereo unspecified) the AC50 was > 42 µM (inactive). For `CNC(=O)c1ccccc1NC(=O)c1c(O)c2c([nH]c1=O)CCCC2`, the AC50 was > 42 µM (inactive). For `COc1cc2c(cc1OC)C(c1ccccc1C)CC(=O)N2` (stereo unspecified), the AC50 was > 42 µM (inactive). `O=C1NC(Cc2c[nH]c3ccccc23)C(=O)N1Cc1ccc(CN2C(=O)NC(Cc3c[nH]c4ccccc34)C2=O)cc1` (stereo unspecified) was tested, and the AC50 was > 42 µM (inactive). For `COc1ccccc1/C=C/C(=O)N1CCc2cc(OC)c(OC)cc2C1C` (stereo unspecified), the AC50 was > 42 µM (inactive). For `CC(=O)Nc1ccc(/C(C)=N/NC(=O)c2ccncc2)cc1`, the AC50 was > 42 µM (inactive). With `CCOc1ccc(Cn2c(SCCCCC#N)nc3c2c(=O)n(C)c(=O)n3C)cc1OCC` the AC50 was > 42 µM (inactive). `COc1ccc(OC)c(NC(=O)CN(C)S(=O)(=O)c2ccc(Cl)cc2)c1` was tested, and the AC50 was > 42 µM (inactive). In the case of `Cc1ccc(-c2nnc(SCC#N)n2N)cc1`, the AC50 is reported as > 42 µM (inactive). For `O=C(O)c1ccc(Cl)c(NCc2cccs2)c1`, the AC50 was > 42 µM (inactive). In the case of `COc1cc(C)ccc1OCCCOc1ccccc1Br`, the AC50 is reported as > 42 µM (inactive). With `Cc1ccc(/C=C/C(=O)OCC(=O)N(CC(C)C)c2c(N)n(Cc3ccccc3)c(=O)[nH]c2=O)o1` the AC50 was > 21 µM (inactive). `O=C1CC(c2ccccc2)c2ccc(O)cc2O1` (stereo unspecified) was tested, and the AC50 was > 42 µM (inactive). With `CCN1CCN(CC(=O)N2N=CCC2c2ccccc2)CC1` (stereo unspecified) the AC50 was > 42 µM (inactive). `CCCn1c(N)cc(=O)n(CCC)c1=O` was tested, and the AC50 was > 42 µM (inactive). `Cc1cc(C)c(S(=O)(=O)c2cccc(C)c2C)c(=O)[nH]1` was tested, and the AC50 was > 42 µM (inactive). For `COc1cc2nc(CSc3ncn[nH]3)[nH]c(=O)c2cc1OC`, the AC50 was > 42 µM (inactive).

Reference: PubChem BioAssay AID463199 (Broad Institute, 2010)
